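These data come from cells grown in 96-well plates and exposed to compound for 48 hours at five concentrations. The concentration for 50% growth inhibition is given as GI50.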 Active and inactive are the calls of the source. No stated cut-off is given here; in the data, active = GI50 up to about 1.1 µM and inactive = higher.
How the values were obtained:
Experiment in all cases: NCI tumour cell line growth inhibition, 48 h
[1] = test system: UACC-62
[2] = test system: CCRF-CEM
[3] = test system: RPMI-8226
[4] = test system: A498
[5] = test system: SN12C
[6] = test system: TK-10
[7] = test system: U-251
[8] = test system: OVCAR-8
[9] = test system: SF-295
[10] = test system: NCI-H23
[11] = test system: OVCAR-5
[12] = test system: ACHN
[13] = test system: KM12
[14] = test system: HCC 2998
[15] = test system: OVCAR-4
[16] = test system: SW-620
[17] = test system: NCI-H226
[18] = test system: HOP-62

Measured: GI50

O=C(N/N=C/c1ccccc1O)c1cccc([N+](=O)[O-])c1
inactive: [1] 20.7 µM | [2] 3.03 µM | [3] 8.04 µM | [4] 76.7 µM | [5] 21.1 µM | [6] 30.9 µM | [7] 26.2 µM | [8] 6.95 µM | [9] 19.7 µM | [10] 16.5 µM | [11] 22.4 µM | [12] 8.41 µM | [13] 29.6 µM | [14] 30.5 µM | [15] 50.5 µM | [16] 4.54 µM

O=C(CC1SC(Nc2ccccc2Cl)=NC1=O)Nc1ccc(Cl)cc1Cl (stereo not given)
inactive: [1] > 100 µM | [2] > 100 µM | [3] 54 µM | [5] > 100 µM | [6] > 100 µM | [7] > 100 µM | [17] > 100 µM | [8] > 100 µM | [9] > 100 µM | [10] > 100 µM | [11] > 100 µM | [18] > 100 µM | [12] > 100 µM | [13] > 100 µM | [14] > 100 µM | [15] > 100 µM | [16] > 100 µM

C1=CC2CCC1CN2CCC1CNc2ccccc21 (stereo not given)
inactive: [1] > 100 µM | [2] > 100 µM | [3] > 100 µM | [4] > 100 µM | [5] > 100 µM | [6] > 100 µM | [7] > 100 µM | [17] > 100 µM | [8] > 100 µM | [9] > 100 µM | [10] > 100 µM | [11] > 100 µM | [18] > 100 µM | [12] > 100 µM | [13] > 100 µM | [14] > 100 µM | [16] > 100 µM

C=CCn1cc(C(=O)NC(=O)NCCCCCOC(=O)CCCCCCCCCCC(=O)OCCCCCNC(=O)NC(=O)c2cn(CC=C)c(=O)n(C)c2=O)c(=O)n(C)c1=O
inactive: [1] > 100 µM | [2] > 100 µM | [3] > 100 µM | [4] > 100 µM | [5] > 100 µM | [6] > 100 µM | [7] > 100 µM | [17] > 100 µM | [8] > 100 µM | [10] > 100 µM | [11] > 100 µM | [18] > 100 µM | [12] > 100 µM | [13] > 100 µM | [14] > 100 µM | [16] > 100 µM

Cc1ccccc1-n1c(C)nc(-c2ccccc2)cc1=O
inactive: [1] > 100 µM | [2] > 100 µM | [4] > 100 µM | [5] > 100 µM | [6] > 100 µM | [7] > 100 µM | [17] > 100 µM | [8] > 100 µM | [9] > 100 µM | [10] > 100 µM | [11] > 100 µM | [18] > 100 µM | [12] > 100 µM | [13] > 100 µM | [14] > 100 µM | [15] > 100 µM | [16] > 100 µM

CCCCCCCCCCCCCCCCCc1nnc(N)o1
inactive: [1] > 100 µM | [3] > 100 µM | [5] > 100 µM | [6] > 100 µM | [7] > 100 µM | [17] > 100 µM | [8] > 100 µM | [9] > 100 µM | [10] 47.4 µM | [11] > 100 µM | [18] > 100 µM | [12] > 100 µM | [13] > 100 µM | [14] > 100 µM | [15] > 100 µM | [16] > 100 µM

COc1cccc(-c2cc(=O)c3cc(C)c(C)c(C(=O)O)c3o2)c1
inactive: [1] > 100 µM | [2] > 100 µM | [3] > 100 µM | [4] > 100 µM | [5] > 100 µM | [6] > 100 µM | [7] > 100 µM | [8] > 100 µM | [9] > 100 µM | [10] > 100 µM | [11] > 100 µM | [18] > 100 µM | [12] > 100 µM | [13] > 100 µM | [14] > 100 µM | [15] > 100 µM | [16] > 100 µM

COC(=O)C12CC3CC(C1)CC(C(=O)OC)(C3)C2
inactive: [1] > 100 µM | [2] > 100 µM | [3] > 100 µM | [4] > 100 µM | [5] > 100 µM | [6] > 100 µM | [7] > 100 µM | [8] > 100 µM | [9] > 100 µM | [10] > 100 µM | [11] > 100 µM | [18] > 100 µM | [12] > 100 µM | [13] > 100 µM | [14] > 100 µM | [15] > 100 µM | [16] > 100 µM

CC1(C)CC(=O)C(CC2C(=O)CCCC2=O)C(=O)C1
inactive: [1] > 100 µM | [2] > 100 µM | [4] > 100 µM | [5] > 100 µM | [6] > 100 µM | [7] > 100 µM | [17] > 100 µM | [8] > 100 µM | [9] > 100 µM | [10] > 100 µM | [11] > 100 µM | [18] > 100 µM | [12] > 100 µM | [13] > 100 µM | [14] > 100 µM | [15] > 100 µM | [16] > 100 µM

COc1cc2ccc3c4cc(OC)c(OC(C)C)cc4c[n+](C)c3c2cc1OC
inactive: [1] 55.2 µM | [2] 49.1 µM | [3] > 100 µM | [5] 31.5 µM | [6] > 100 µM | [7] 31.3 µM | [17] 71.3 µM | [8] 39.2 µM | [9] > 100 µM | [10] 95.7 µM | [11] > 100 µM | [18] > 100 µM | [12] > 100 µM | [13] > 100 µM | [14] 44.5 µM | [15] 64 µM | [16] 71.6 µM

CN1N=C(Nc2ccccc2)Sc2c1cnn(-c1ccccc1)c2=O
inactive: [1] 40 µM | [2] > 100 µM | [3] 93.3 µM | [4] > 100 µM | [5] > 100 µM | [6] > 100 µM | [7] > 100 µM | [8] > 100 µM | [9] 73.3 µM | [10] 66.1 µM | [18] > 100 µM | [12] > 100 µM | [13] > 100 µM | [14] > 100 µM | [15] 94.4 µM | [16] > 100 µM

Cc1ccc(C)c(NC(=O)CC2SC(Nc3ccccc3Cl)=NC2=O)c1 (stereo not given)
inactive: [1] 49.3 µM | [2] 22.1 µM | [4] > 100 µM | [5] > 100 µM | [6] > 100 µM | [7] > 100 µM | [17] > 100 µM | [8] > 100 µM | [9] 72.6 µM | [10] 43 µM | [11] > 100 µM | [18] > 100 µM | [12] 71.1 µM | [13] > 100 µM | [14] > 100 µM | [15] 65.9 µM | [16] > 100 µM

Reference: ChEMBL document CHEMBL1201862, “PubChem BioAssay data set” (2004)
